Test results from BindingDB's records for doi:10.1021/jm015552m (Universita' Degli Studi Di Siena, 2001).

Columns and labels:
[1] = biological target: Glutamate receptor 1 (Rattus norvegicus) (UniProt P19490); assay: Binding affinity towards GluR1 receptor from rat brain
[2] = biological target: Glutamate receptor 1 (Rattus norvegicus) (UniProt P19490); assay: The potency at recombinant rat AMPA-R was measured on GluR1 receptor expressed in Xenopus Laevis oocytes

Glutamate receptor 1 (Rattus norvegicus), sequence (P19490 whole entry, looked up): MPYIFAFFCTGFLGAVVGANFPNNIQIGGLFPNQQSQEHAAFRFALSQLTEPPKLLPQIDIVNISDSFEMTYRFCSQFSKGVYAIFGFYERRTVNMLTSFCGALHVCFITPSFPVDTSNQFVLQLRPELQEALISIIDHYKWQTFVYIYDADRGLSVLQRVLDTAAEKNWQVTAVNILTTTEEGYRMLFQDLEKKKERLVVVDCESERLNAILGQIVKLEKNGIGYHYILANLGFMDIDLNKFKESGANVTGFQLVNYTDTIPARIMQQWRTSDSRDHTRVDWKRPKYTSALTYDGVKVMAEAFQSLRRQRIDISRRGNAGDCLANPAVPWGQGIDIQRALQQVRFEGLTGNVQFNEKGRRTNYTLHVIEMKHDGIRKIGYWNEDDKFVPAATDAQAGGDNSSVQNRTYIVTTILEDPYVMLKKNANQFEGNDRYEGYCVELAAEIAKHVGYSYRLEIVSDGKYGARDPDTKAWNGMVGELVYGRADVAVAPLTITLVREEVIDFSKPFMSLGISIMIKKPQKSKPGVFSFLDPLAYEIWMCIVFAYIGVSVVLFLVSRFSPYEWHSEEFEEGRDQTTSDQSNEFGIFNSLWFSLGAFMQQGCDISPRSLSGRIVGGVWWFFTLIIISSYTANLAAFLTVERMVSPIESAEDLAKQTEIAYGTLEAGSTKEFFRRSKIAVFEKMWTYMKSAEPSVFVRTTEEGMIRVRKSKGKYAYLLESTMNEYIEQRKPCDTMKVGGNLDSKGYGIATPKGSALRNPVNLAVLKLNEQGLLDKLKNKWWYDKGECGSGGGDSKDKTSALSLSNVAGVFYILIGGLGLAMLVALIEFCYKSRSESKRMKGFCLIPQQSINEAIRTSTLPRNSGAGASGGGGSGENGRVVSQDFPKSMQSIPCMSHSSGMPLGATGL

Q: Which Ki [1] does the source give for `N[C@@H](Cn1c2c(c(=O)[nH]c1=O)CCC2)C(=O)O` [2-Amino-3-(2,4-dioxo-2,3,4,5,6,7-hexahydro-cyclopentapyrimidin-1-yl)-propionic acid] here?
A: 0.109 µM

Q: And the EC50 [2]?
A: 24.9 µM
